Measurements reported in ChEMBL document CHEMBL4350978, “Phytochemical and pharmacological attributes of piperine: A bioactive ingredient of black pepper” (2019).
Converted amounts (≈) assume the structure as drawn.

Experiments:
Type in all cases: functional
Escherichia coli [1] = assay: Antibacterial activity against Escherichia coli assessed as diameter of zone of inhibition at 15 ug/disc by disc diffusion method; settings: read-out: DIZ
Pseudomonas aeruginosa [2] = assay: Antibacterial activity against Pseudomonas aeruginosa assessed as diameter of zone of inhibition at 15 ug/disc by disc diffusion method; settings: read-out: DIZ
Klebsiella pneumoniae [3] = assay: Antibacterial activity against Klebsiella pneumoniae assessed as diameter of zone of inhibition at 15 ug/disc by disc diffusion method; settings: read-out: DIZ
Staphylococcus aureus [4] = assay: Antibacterial activity against Staphylococcus aureus assessed as diameter of zone of inhibition at 15 ug/disc by disc diffusion method; settings: read-out: DIZ
Proteus vulgaris [5] = assay: Antibacterial activity against Proteus vulgaris assessed as diameter of zone of inhibition at 15 ug/disc by disc diffusion method; settings: read-out: DIZ
Escherichia coli [6] = assay: Antibacterial activity against Escherichia coli by serial dilution method
Klebsiella pneumoniae [7] = assay: Antibacterial activity against Klebsiella pneumoniae by serial dilution method
Klebsiella pneumoniae [8] = assay: Antibacterial activity against Klebsiella pneumoniae assessed as diameter of zone of inhibition at […] by disc diffusion method
Pseudomonas aeruginosa [9] = assay: Antibacterial activity against Pseudomonas aeruginosa assessed as diameter of zone of inhibition at […] by disc diffusion method
Escherichia coli [10] = assay: Antibacterial activity against Escherichia coli assessed as diameter of zone of inhibition at […] by disc diffusion method
Staphylococcus aureus [11] = assay: Antibacterial activity against Staphylococcus aureus assessed as diameter of zone of inhibition at […] by disc diffusion method
Proteus vulgaris [12] = assay: Antibacterial activity against Proteus vulgaris by serial dilution method
Proteus vulgaris [13] = assay: Antibacterial activity against Proteus vulgaris assessed as diameter of zone of inhibition at […] by disc diffusion method
Staphylococcus aureus [14] = assay: Antibacterial activity against Staphylococcus aureus by serial dilution method
Candida albicans [15] = assay: Antifungal activity against Candida albicans by serial dilution method
Candida albicans [16] = assay: Antifungal activity against Candida albicans assessed as diameter of zone of inhibition at […] by disc diffusion method
Proteus vulgaris [17] = assay: Antibacterial activity against Proteus vulgaris assessed as diameter of zone of inhibition at 10 ug/disc by disc diffusion method; settings: read-out: DIZ
Pseudomonas aeruginosa [18] = assay: Antibacterial activity against Pseudomonas aeruginosa assessed as diameter of zone of inhibition at 10 ug/disc by disc diffusion method; settings: read-out: DIZ
Escherichia coli [19] = assay: Antibacterial activity against Escherichia coli assessed as diameter of zone of inhibition at 10 ug/disc by disc diffusion method; settings: read-out: DIZ
Staphylococcus aureus [20] = assay: Antibacterial activity against Staphylococcus aureus assessed as diameter of zone of inhibition at 10 ug/disc by disc diffusion method; settings: read-out: DIZ
Klebsiella pneumoniae [21] = assay: Antibacterial activity against Klebsiella pneumoniae assessed as diameter of zone of inhibition at 10 ug/disc by disc diffusion method; settings: read-out: DIZ

## CC[C@H]1OC(=O)[C@H](C)[C@@H](O[C@H]2C[C@@](C)(OC)[C@@H](O)[C@H](C)O2)[C@H](C)[C@@H](O[C@@H]2O[C@H](C)C[C@H](N(C)C)[C@H]2O)[C@](C)(O)C[C@@H](C)C(=O)[C@H](C)[C@@H](O)[C@]1(C)O [ERYTHROMYCIN]
Escherichia coli [1]
  zone of inhibition at 15 µg/disc: 15 mm
Pseudomonas aeruginosa [2]
  zone of inhibition at 15 µg/disc: 18 mm
Klebsiella pneumoniae [3]
  zone of inhibition at 15 µg/disc: 10 mm
Staphylococcus aureus [4]
  zone of inhibition at 15 µg/disc: 24 mm
Proteus vulgaris [5]
  zone of inhibition at 15 µg/disc: 6 mm

## O=C(/C=C/C=C/c1ccc2c(c1)OCO2)N1CCCCC1 [PIPERINE]
Escherichia coli [6]
  MIC: 6.25 mg/mL (≈ 21.9 mM)
Klebsiella pneumoniae [7]
  MIC: 25 mg/mL (≈ 87.6 mM)
Klebsiella pneumoniae [8]
  diameter of the inhibition zone (DIZ): 15 mm
Pseudomonas aeruginosa [9]
  diameter of the inhibition zone (DIZ): 8 mm
Escherichia coli [10]
  diameter of the inhibition zone (DIZ): 20 mm
Staphylococcus aureus [11]
  diameter of the inhibition zone (DIZ): 12 mm
Proteus vulgaris [12]
  MIC: 12.5 mg/mL (≈ 43.8 mM)
Proteus vulgaris [13]
  diameter of the inhibition zone (DIZ): 17 mm
Staphylococcus aureus [14]
  MIC: 50 mg/mL (≈ 175 mM)
Candida albicans [15]
  MIC: 3.12 mg/mL (≈ 11 mM)
Candida albicans [16]
  diameter of the inhibition zone (DIZ): 23 mm

## CN[C@@H]1[C@H](O[C@H]2[C@H](O[C@H]3[C@H](O)[C@@H](O)[C@H](N=C(N)N)[C@@H](O)[C@@H]3N=C(N)N)O[C@@H](C)[C@]2(O)C=O)O[C@@H](CO)[C@H](O)[C@H]1O [STREPTOMYCIN]
Proteus vulgaris [17]
  zone of inhibition at 10 µg/disc: 10 mm
Pseudomonas aeruginosa [18]
  zone of inhibition at 10 µg/disc: 22 mm
Escherichia coli [19]
  zone of inhibition at 10 µg/disc: 13.5 mm
Staphylococcus aureus [20]
  zone of inhibition at 10 µg/disc: 23 mm
Klebsiella pneumoniae [21]
  zone of inhibition at 10 µg/disc: 20 mm
